Common to all, as to type: physicochemical
The nature of series [1]: Dynamic Vapour Sorption (DVS) hygroscopicity of bupropion HBr. As to conditions: for DVS: water uptake / hygroscopicity (words): range 0% RH-90% RH, hydrobromide.
The nature of series [2]: Solubility of Bupropion HBr vs Bupropion HCl in water, EtOH, IPA.
Series [3] in a line: Shelf life stability program of bupropion HBr, 25° C./60% RH, 3 and 6 months, HPLC. As to conditions: 25° C./60% RH, 3 and 6 months. Put shortly:
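Three batches of bupropion HBr stored in closed containers at 25° C.+2° C./60%+5% RH. Sampled at time 0, 3 and 6 months, each analysed under two HPLC conditions for 6 impurities or impurity groups; degradation product amounts compared to time 0.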

Series [4] can be described thus: Accelerated stability study of bupropion HBr, closed bottles, 40° C./75% RH, 3 and 6 months, HPLC. As to conditions: 40° C./75% RH.

Consider `Br.CC(NC(C)(C)C)C(=O)c1cccc(Cl)c1` (centres unmarked) [Bupropion HBr, bupropion hydrobromide], for which the “DVS: maximum water uptake” value in series [1] (at 90% RH) was determined as 0.14 % weight. For the same molecule, the “DVS: water uptake / hygroscopicity (words)” value in series [1] (listed as HBr) is “non-hygroscopic”; in series [1] (listed as bupropion HBr), “no significant water uptake”. The “Solubility, EtOH” value in series [2] (EtOH) turned out to be 92 mg/mL. Further, in series [2] (IPA), the “Solubility, IPA” value came out at 12 mg/mL. Besides, the “Solubility, Water” value in series [2] (water) was 143 mg/mL. Also, the “Other impurities, trend” value in series [3] is “did not show an increasing trend over time”. The “Impurity 3′-chloropropiophenone, trend” value in series [3] (three batches) is “increased slightly over time”; in series [4] (3 and 6 months, three batches), “slight increase”. For the same molecule, the “Total percentage of impurities, change” value in series [4] (3-month and 6-month) is recorded as “did not change”. Also, in series [4] (6 months), the “Stability under the accelerated stability test conditions” value is reported as “highly stable”.

These data come from patent US7884136B2, “Modified-release formulations of a bupropion salt” (Biovail Laboratories International S.R.L., priority 2005, dated 2011).
